The values that follow come from patent US8357694B2, “Substituted 5,6-dihydro-6-phenylbenzo[F]isoquinolin-2-amine compounds” (ArQule, Inc., priority 2008, dated 2013).

Usually melting point stands for the temperature, or range, at which the solid turns liquid.

Structures can show the parent of a compound that is named as a salt.

Compound `CN1CCN(CCc2ccc(Nc3ncc4c(n3)-c3ccccc3[C@H](c3ccc(F)c(F)c3)C4)cc2)CC1` (as salt: hydrochloride) [Example 88, (S)-6-(3,4-difluorophenyl)-N-(4-(2-(4-methylpiperazin-1-yl)ethyl)phenyl)-5,6-dihydrobenzo[h]quinazolin-2-amine hydrochloride] had a melting point of 90 to 92 °C.

Consider `Brc1cccc(C2Cc3cnc(Nc4ccc(CCNCCN5CCCC5)cc4)nc3-c3ccccc32)c1` (centres unmarked) [Example 47, 6-(3-bromophenyl)-N-(4-(2-(2-(pyrrolidin-1-yl)ethylamino)ethyl)phenyl)-5,6-dihydrobenzo[h]quinazolin-2-amine], for which the melting point fell in the range of 83 to 85 °C.

As to `COCCNCc1cccc(Nc2ncc3c(n2)-c2ccccc2[C@H](c2ccccc2F)C3)c1` (as salt: hydrochloride) [Example 178, (R)-6-(2-fluorophenyl)-N-(3-((2-methoxyethylamino)methyl)phenyl)-5,6-dihydrobenzo[h]quinazolin-2-amine hydrochloride], the melting point was in the range of 158 to 163 °C.

`Nc1ncc2c(n1)-c1ccc(-c3ccccc3)cc1C(c1ccc(Cl)c(Cl)c1)C2` (centres unmarked) [Example 21, 6-(3,4-dichlorophenyl)-8-phenyl-5,6-dihydrobenzo[h]quinazolin-2-amine] had a melting point of 186 to 187 °C.

`CCCCN(C)CCc1ccc(Nc2ncc3c(n2)-c2ccccc2C(c2ccc(Cl)cc2)C3)cc1` (centres unmarked) (as salt: hydrochloride) returned a melting point of 145 to 150 °C.

The compound `Fc1ccccc1[C@@H]1Cc2cnc(Nc3ccc(CCN4CCCCC4)cc3)nc2-c2ccccc21` (as salt: hydrochloride) [Example 67, (R)-6-(2-fluorophenyl)-N-(4-(2-(piperidin-1-yl)ethyl)phenyl)-5,6-dihydrobenzo[h]quinazolin-2-amine hydrochloride] yielded a melting point of 170 to 174 °C.

As to `CN1CCN(CCc2ccc(Nc3ncc4c(n3)-c3ccccc3C(c3ccccc3C(F)(F)F)C4)cc2)CC1` (centres unmarked) [Example 71, N-(4-(2-(4-methylpiperazin-1-yl)ethyl)phenyl)-6-(2-(trifluoromethyl)phenyl)-5,6 dihydrobenzo[h]quinazolin-2-amine], the melting point lay in the range of 157 to 158 °C.

Compound `COCCN1CCN(CCc2ccc(Nc3ncc4c(n3)-c3ccccc3[C@@H](c3ccccc3Cl)C4)cc2)CC1` (as salt: hydrochloride) gave a melting point of 143 to 145 °C.

In turn, `Nc1ncc2c(n1)-c1ccccc1[C@H](c1ccc(Cl)c(Cl)c1)C2` displayed a melting point of 159 to 160 °C.

The compound `CCCCN(C)CCc1ccc(Nc2ncc3c(n2)-c2ccccc2C(c2cccc(Br)c2)C3)cc1` (centres unmarked) [Example 26, 6-(3-bromophenyl)-N-(4-(2-(butyl(methyl)amino)ethyl)phenyl)-5,6-dihydrobenzo[h]quinazolin-2-amine] showed a melting point of 66 to 68 °C.

Regarding `Brc1cccc(C2Cc3cnc(Nc4ccc(CCN5CCOCC5)cc4)nc3-c3ccccc32)c1` (centres unmarked) [Example 31, 6-(3-bromophenyl)-N-(4-(2-morpholinoethyl)phenyl)-5,6-dihydrobenzo[h]quinazolin-2-amine], the melting point is 86 to 88 °C.

`COCCNCCc1ccc(Nc2ncc3c(n2)-c2ccccc2[C@H](c2ccccc2F)C3)cc1` (as salt: hydrochloride) [Example 94, (R)-6-(2-fluorophenyl)-N-(4-(2-(2-methoxyethylamino)ethyl)phenyl)-5,6-dihydrobenzo[h]quinazolin-2-amine hydrochloride salt] came in with a melting point of 198 to 201 °C.

Compound `CN(CCc1ccc(Nc2ncc3c(n2)-c2ccccc2[C@H](c2cccc(Br)c2)C3)cc1)C1CCCCC1` (as salt: hydrochloride) [Example 79, (S)-6-(3-bromophenyl)-N-(4-(2-(cyclohexyl(methyl)amino)ethyl)phenyl)-5,6-dihydrobenzo[h]quinazolin-2-amine hydrochloride] came in with a melting point of 167 to 172 °C.

Take `CN(C)CCN(CCc1ccc(Nc2ncc3c(n2)-c2ccccc2C(c2cccc(Br)c2)C3)cc1)Cc1ccccc1` (centres unmarked) [Example 38, N^1-benzyl-N-1-(4-(6-(3-bromophenyl)-5,6-dihydrobenzo[h]quinazolin-2-ylamino)phenethyl)-N^2,N^2-dimethylethane-1,2-diamine]: the melting point lay within 68 to 70 °C.

Regarding `OCCc1ccc(Nc2ncc3c(n2)-c2ccccc2C(c2ccc(Cl)c(Cl)c2)C3)cc1` (centres unmarked), the melting point lay within 94 to 96 °C.

For the compound `Clc1ccc(C2Cc3cnc(Nc4ccc(CCN5CCCCC5)cc4)nc3-c3ccccc32)cc1` (centres unmarked) (as salt: hydrochloride) [Example 53, 6-(4-chlorophenyl)-N-(4-(2-(piperidin-1-yl)ethyl)phenyl)-5,6 dihydrobenzo[h]quinazolin-2-amine], the melting point was in the range of 170 to 175 °C.

`Fc1ccccc1[C@@H]1Cc2cnc(Nc3cccc(CCN4CCNCC4)c3)nc2-c2ccccc21` (as salt: hydrochloride) [Example 160, (R)-6-(2-fluorophenyl)-N-(3-(2-(piperazin-1-yl)ethyl)phenyl)-5,6-dihydrobenzo[h]quinazolin-2-amine hydrochloride] had a melting point of 193 to 199 °C.

`Nc1cc2c(cn1)CC(c1ccc(Cl)cc1Cl)c1ccccc1-2` (centres unmarked) [Example 156, 6-(2,4-dichlorophenyl)-5,6-dihydrobenzo[f]isoquinolin-2-amine]: the melting point lay in the range of 189 to 193 °C.

As for `COCCN1CCN(CCc2ccc(Nc3ncc4c(n3)-c3ccccc3[C@H](c3ccccc3F)C4)cc2)CC1` (as salt: hydrochloride) [Example 66, (R)-6-(2-fluorophenyl)-N-(4-(2-(4-(2-methoxyethyl)piperazin-1-yl)ethyl)phenyl)-5,6-dihydrobenzo[h]quinazolin-2-amine hydrochloride], the melting point is 212 to 216 °C.

As to `CCCCN(C)CCc1ccc(Nc2ncc3c(n2)-c2ccccc2[C@H](c2ccc(F)cc2)C3)cc1` [Example 99, (S)—N-(4-(2-(butyl(methyl)amino)ethyl)phenyl)-6-(4-fluorophenyl)-5,6-dihydrobenzo[h]quinazolin-2-amine], the melting point fell in the range of 164 to 166 °C.

Compound `CC(C)(C)OC(=O)N1CCN(CCc2ccc(Nc3ncc4c(n3)-c3ccccc3C(c3ccccc3C(F)(F)F)C4)cc2)CC1` (centres unmarked) [Example 72, tert-butyl 4-(4-(6-(2-(trifluoromethyl)phenyl)-5,6-dihydrobenzo[h]quinazolin-2-ylamino)phenethyl)piperazine-1-carboxylate] displayed a melting point of 234 to 235 °C.

In turn, `CC(C)(C)OC(=O)N1CCC(Nc2ncc3c(n2)-c2ccccc2C(c2ccc(Cl)c(Cl)c2)C3)CC1` (centres unmarked) [Example 19, tert-butyl 4-(6-(3,4-dichlorophenyl)-5,6-dihydrobenzo[h]quinazolin-2-ylamino)piperidine-1-carboxylate] gave a melting point of 94 to 96 °C.

In turn, `Brc1cccc(C2Cc3cnc(Nc4ccc(CCNCCN5CCOCC5)cc4)nc3-c3ccccc32)c1` (centres unmarked) [Example 45, 6-(3-bromophenyl)-N-(4-(2-(2-morpholinoethylamino)ethyl)phenyl)-5,6-dihydrobenzo[h]quinazolin-2-amine] gave a melting point of 85 to 87 °C.

`CS(=O)(=O)OCCc1cc(Nc2ncc3c(n2)-c2ccccc2[C@H](c2ccccc2F)C3)ccc1F` [Example 170, (R)-2-fluoro-5-(6-(2-fluorophenyl)-5,6-dihydrobenzo[h]quinazolin-2-ylamino)phenethyl methanesulfonate] returned a melting point of 99 to 100 °C.

`CN(CCc1ccc(Nc2ncc3c(n2)-c2ccccc2C(c2cccc(Br)c2)C3)cc1)C1CCCCC1` (centres unmarked) [Example 29, 6-(3-bromophenyl)-N-(4-(2-(cyclohexyl(methyl)amino)ethyl)phenyl)-5,6-dihydrobenzo[h]quinazolin-2-amine] came in with a melting point of 215 to 217 °C.

Take `Fc1ccc(C2Cc3cnc(NCCCN4CCCCC4)nc3-c3ccccc32)cc1` (centres unmarked) [Example 16, 6-(4-fluorophenyl)-N-(3-(piperidin-1-yl)propyl)-5,6-dihydrobenzo[h]quinazolin-2-amine]: the melting point is 60 to 62 °C.

`CN1CCN(CCc2cccc(Nc3ncc4c(n3)-c3ccccc3[C@H](c3ccccc3F)C4)c2)CC1` (as salt: hydrochloride) [Example 161, (R)-6-(2-fluorophenyl)-N-(3-(2-(4-methylpiperazin-1-yl)ethyl)phenyl)-5,6-dihydrobenzo[h]quinazolin-2-amine hydrochloride]: the melting point is 182 to 186 °C.

`Fc1ccc([C@@H]2Cc3cnc(Nc4ccc(CCN5CCCCC5)cc4)nc3-c3ccccc32)cc1F` (as salt: hydrochloride) [Example 84, (S)-6-(3,4-difluorophenyl)-N-(4-(2-(piperidin-1-yl)ethyl)phenyl)-5,6-dihydrobenzo[h]quinazolin-2-amine hydrochloride]: the melting point was 163 to 165 °C.

Compound `CN(CCc1ccccc1)CCc1ccc(Nc2ncc3c(n2)-c2ccccc2[C@H](c2ccccc2F)C3)cc1` (as salt: hydrochloride) [Example 93, (R)-6-(2-fluorophenyl)-N-(4-(2-(methyl(phenethyl)amino)ethyl)phenyl)-5,6-dihydrobenzo[h]quinazolin-2-amine hydrochloride salt] had a melting point of 135 to 145 °C.

In the case of `CN1CCN(CCc2cc(Nc3ncc4c(n3)-c3ccccc3[C@H](c3ccccc3F)C4)ccc2F)CC1` (as salt: hydrochloride) [Example 174, (R)—N-(4-fluoro-3-(2-(4-methylpiperazin-1-yl)ethyl)phenyl)-6-(2-fluorophenyl)-5,6-dihydrobenzo[h]quinazolin-2-amine hydrochloride salt], the melting point fell in the range of 225 to 229 °C.

In turn, `CCCCN(C)CCc1ccc(Nc2ncc3c(n2)-c2ccccc2[C@H](c2ccc(Cl)cc2)C3)cc1` (as salt: hydrochloride) gave a melting point of 75 to 77 °C.

For the compound `Clc1ccc([C@H]2Cc3cnc(Nc4ccc(CCN5CCOCC5)cc4)nc3-c3ccccc32)cc1Cl` [Example 51, (R)-6-(3,4-dichlorophenyl)-N-(4-(2-morpholinoethyl)phenyl)-5,6-dihydrobenzo[h]quinazolin-2-amine], the melting point is 166 to 167 °C.
